According to patent US20130060543A1, “SYSTEMS AND METHODS FOR REVERSE ENGINEERING MODELS OF BIOLOGICAL NETWORKS” (TRUSTEES OF BOSTON UNIVERSITY, priority 2002, published 2013):

Tested on: SOS test network genes
Assay: RNA expression changes of SOS test network genes after MMC perturbation (real-time qPCR)
Format: cell-based, E. coli

CO[C@@]12[C@H](COC(N)=O)C3=C(C(=O)C(C)=C(N)C3=O)N1C[C@@H]1N[C@@H]12 [MMC, Mitomycin C]
Transcriptional response of all genes in the test network (0.75 μg/ml MMC vs 0.5 μg/ml MMC baseline): statistically significant upregulation | Relative RNA expression change xi=[RNAi]pert/[RNAi]cont−1, dinI (0.75 μg/ml MMC vs control cells at 0.5 μg/ml MMC, gene dinI): 0.334 | Relative RNA expression change xi=[RNAi]pert/[RNAi]cont−1, lexA (0.75 μg/ml MMC vs control cells at 0.5 μg/ml MMC, gene lexA): 0.321 | Relative RNA expression change xi=[RNAi]pert/[RNAi]cont−1, recA (0.75 μg/ml MMC vs control cells at 0.5 μg/ml MMC, gene recA): 0.496 | Relative RNA expression change xi=[RNAi]pert/[RNAi]cont−1, recF (0.75 μg/ml MMC vs control cells at 0.5 μg/ml MMC, gene recF): 0.523 | Relative RNA expression change xi=[RNAi]pert/[RNAi]cont−1, rpoD (0.75 μg/ml MMC vs control cells at 0.5 μg/ml MMC, gene rpoD): 0.327 | Relative RNA expression change xi=[RNAi]pert/[RNAi]cont−1, rpoH (0.75 μg/ml MMC vs control cells at 0.5 μg/ml MMC, gene rpoH): 0.786 | Relative RNA expression change xi=[RNAi]pert/[RNAi]cont−1, rpoS (0.75 μg/ml MMC vs control cells at 0.5 μg/ml MMC, gene rpoS): 0.672 | Relative RNA expression change xi=[RNAi]pert/[RNAi]cont−1, ssb (0.75 μg/ml MMC vs control cells at 0.5 μg/ml MMC, gene ssb): 0.251 | Relative RNA expression change xi=[RNAi]pert/[RNAi]cont−1, umuDC (0.75 μg/ml MMC vs control cells at 0.5 μg/ml MMC, gene umuDC): 0.834
